From patent publication US11685901B2, “Compositions and methods for organoid generation and disease modeling” (Salk Institute for Biological Studies, priority 2016, dated 2023)

System: hiPSC-derived hepatocytes
Assay: Lipid accumulation and insulin resistance in hiPSC-derived hepatocytes / human mini liver
Assay type: cell-based
Details: overnight culture
From the text: FIGS. 6A-6H are schematics and images showing generation of functional human mini-organs in a dish. FIG. 6A is a schematic showing generation of functional human mini organs including human islets, pancreas, liver, heart, and intestine. FIGS. 6B-6C show the generation of a human heart organoid. FIG. 6B (top) provides a schematic illustrating the protocol for differentiation of a human pluripotent stem cell (hPSC) into a cardiomyocyte (when cultured in 2D) or into a mini heart (when co-cultured with hADSCs and HUVECs in 3D). FIG. 6B (bottom left) provides a plot showing relative expression of cardiomyocyte-specific genes human MLC2a (hMLC2a), human Nkx2-5 (hNkx2-5), alpha myosin heavy chain (alphaMHC), and KCNQ1 before (day 0) and at day 18 of the differentiation protocol, with and without the PPARδ agonist GW501516. At the bottom right of FIG. 6B is a videomicrograph showing beating of the hiPSC-derived cardiomyocytes. […] FIGS. 6D-6F show generation of a human liver organoid. FIG. 6D (top) provides a schematic illustrating the protocol for differentiation of a human pluripotent stem cell (hPSC) into hepatocytes. FIG. 6D (bottom left) provides a plot showing relative expression of hepatocyte-specific genes AFP, ALB, and Cyp3a7, during the differentiation of 6 independent preparations. At the bottom right of FIG. 6D is a micrograph showing hiPSC-derived hepatocytes. […]

lipid droplets in hiPSC-derived hepatocytes: accumulation of lipid droplets
Substance: phosphatidic acid
